{"source": "patent US6699989B1", "about": "“Antiviral and antimicrobial guanidine or biguanidine derivatives” (priority 2000, dated 2004)", "assay_type_in_all_cases": "cell-based", "key": {"[1]": {"tested_on": "Staphylococcus aureus ATCC 6538", "experiment": "Microdilution broth MIC assay", "conditions": "ATCC6538, Sa, Mueller Hinton broth, about 17 hr", "method": "(§1) Test organisms. The test organisms are listed in Table 5 along with their source. Prior to assay, overnight bacterial slant cultures were used to inoculate Mueller Hinton broth followed by incubation for 5-7 hr. Each culture was then standardized turbidimetrically to a viable count of about 10^6 colony forming units/ml and used to inoculate the mirotiter assay plates. The viable count after addition to the plates was about 5×10^5 CFU/ml.\n(§2) Experimental design. The MIC of the test compounds for the bacterial strains was determined with a microdilution broth assay in 96 well microtiter plates. The test compounds were dissolved in DMSO and then diluted 10-fold in assay medium (Mueller Hinton broth) to obtain final concentrations of 0.128, 1.28, 12.8, and 128 μg/ml. A viability control containing DMSO, diluted in the same manner as the test compounds, was used to confirm that the DMSO was not inhibitory by itself. Trimethoprim (TMP) was used as a positive drug control. The assay plates were incubated at 37° C. for about 17 hr and each assay well observed visually for growth. The MIC was determined at the lowest concentration of drug which inhibited growth. [drawing 32]"}, "[2]": {"tested_on": "Klebsiella pneumoniae ATCC 4352", "experiment": "Microdilution broth MIC assay", "conditions": "ATCC4352, Kp, Mueller Hinton broth, about 17 hr", "method": "as §1, §2"}, "[3]": {"tested_on": "Streptococcus pneumoniae ATCC 6303", "experiment": "Microdilution broth MIC assay", "conditions": "ATCC6303, Sp, Mueller Hinton broth, about 17 hr", "method": "as §1, §2"}, "[4]": {"tested_on": "Escherichia coli ATCC 11229", "experiment": "Microdilution broth MIC assay", "conditions": "ATCC11229, Ec, Mueller Hinton broth, about 17 hr", "method": "as §1, §2"}, "[5]": {"tested_on": "Proteus mirabilis ATCC 9921", "experiment": "Microdilution broth MIC assay", "conditions": "ATCC9921, Pm, Mueller Hinton broth, about 17 hr", "method": "as §1, §2"}, "[6]": {"tested_on": "Staphylococcus epidermidis ATCC 35984", "experiment": "Microdilution broth MIC assay", "conditions": "ATCC35984, Se, Mueller Hinton broth, about 17 hr", "method": "as §1, §2"}, "[7]": {"tested_on": "Pseudomonas aeruginosa ATCC 15442", "experiment": "Microdilution broth MIC assay", "conditions": "ATCC15442, Pa, Mueller Hinton broth, about 17 hr", "method": "as §1, §2"}, "CEM-SS cells": {"tested_on": "CEM-SS cells"}}, "note": "Entries after “also recorded” stand apart in the source; their conditions may differ. Where two headings read alike, the source gives them in different places."}
{"smiles": "N=C(NCCCCCCNC(=N)NC(=N)N1CCN(c2cc3c(cc2F)c(=O)c(C(=O)O)cn3C2CC2)CC1)NC(=N)N1CCN(c2cc3c(cc2F)c(=O)c(C(=O)O)cn3C2CC2)CC1", "note": "[BVS-10A]", "values": [{"measurement": "MIC", "setting": "[1]", "value": "< 0.128", "unit": "µg/mL"}, {"measurement": "MIC", "setting": "[2]", "value": "< 0.128", "unit": "µg/mL"}, {"measurement": "MIC", "setting": "[3]", "value": "1.28 to 12.8", "unit": "µg/mL"}, {"measurement": "MIC", "setting": "[4]", "value": "0.128 to 1.28", "unit": "µg/mL"}, {"measurement": "MIC", "setting": "[5]", "value": "0.128 to 1.28", "unit": "µg/mL"}, {"measurement": "MIC", "setting": "[6]", "value": "< 0.128", "unit": "µg/mL"}, {"measurement": "MIC", "setting": "[7]", "value": "1.28 to 12.8", "unit": "µg/mL"}, {"measurement": "% CELL VIABILITY", "setting": "CEM-SS cells; 0.00032 uG/mL, CEM-SS", "value": 100, "unit": "%"}, {"measurement": "CYTOTOXICITY TEST VALUES MEAN O.D.", "setting": "CEM-SS cells; 0.00032 uG/mL, CEM-SS", "value": 1.317, "unit": "O.D."}, {"measurement": "% CELL VIABILITY", "setting": "CEM-SS cells; 0.001 uG/mL, CEM-SS", "value": 100, "unit": "%"}, {"measurement": "CYTOTOXICITY TEST VALUES MEAN O.D.", "setting": "CEM-SS cells; 0.001 uG/mL, CEM-SS", "value": 1.323, "unit": "O.D."}, {"measurement": "% CELL VIABILITY", "setting": "CEM-SS cells; 0.0032 uG/mL, CEM-SS", "value": 100, "unit": "%"}, {"measurement": "CYTOTOXICITY TEST VALUES MEAN O.D.", "setting": "CEM-SS cells; 0.0032 uG/mL, CEM-SS", "value": 1.307, "unit": "O.D."}, {"measurement": "% CELL VIABILITY", "setting": "CEM-SS cells; 0.01 uG/mL, CEM-SS", "value": 100, "unit": "%"}, {"measurement": "CYTOTOXICITY TEST VALUES MEAN O.D.", "setting": "CEM-SS cells; 0.01 uG/mL, CEM-SS", "value": 1.364, "unit": "O.D."}, {"measurement": "% CELL VIABILITY", "setting": "CEM-SS cells; 0.032 uG/mL, CEM-SS", "value": 100, "unit": "%"}, {"measurement": "CYTOTOXICITY TEST VALUES MEAN O.D.", "setting": "CEM-SS cells; 0.032 uG/mL, CEM-SS", "value": 1.339, "unit": "O.D."}, {"measurement": "% CELL VIABILITY", "setting": "CEM-SS cells; 0.1 uG/mL, CEM-SS", "value": 100, "unit": "%"}, {"measurement": "CYTOTOXICITY TEST VALUES MEAN O.D.", "setting": "CEM-SS cells; 0.1 uG/mL, CEM-SS", "value": 1.369, "unit": "O.D."}, {"measurement": "% CELL VIABILITY", "setting": "CEM-SS cells; 0.32 uG/mL, CEM-SS", "value": 100, "unit": "%"}, {"measurement": "CYTOTOXICITY TEST VALUES MEAN O.D.", "setting": "CEM-SS cells; 0.32 uG/mL, CEM-SS", "value": 1.385, "unit": "O.D."}, {"measurement": "% CELL VIABILITY", "setting": "CEM-SS cells; 1 uG/mL, CEM-SS", "value": 100, "unit": "%"}, {"measurement": "CYTOTOXICITY TEST VALUES MEAN O.D.", "setting": "CEM-SS cells; 1 uG/mL, CEM-SS", "value": 1.512, "unit": "O.D."}, {"measurement": "% CELL VIABILITY", "setting": "CEM-SS cells; 3.2 uG/mL, CEM-SS", "value": 100, "unit": "%"}, {"measurement": "CYTOTOXICITY TEST VALUES MEAN O.D.", "setting": "CEM-SS cells; 3.2 uG/mL, CEM-SS", "value": 1.556, "unit": "O.D."}, {"measurement": "% CELL VIABILITY", "setting": "CEM-SS cells; 10 uG/mL, CEM-SS", "value": 100, "unit": "%"}, {"measurement": "CYTOTOXICITY TEST VALUES MEAN O.D.", "setting": "CEM-SS cells; 10 uG/mL, CEM-SS", "value": 1.804, "unit": "O.D."}, {"measurement": "% CELL VIABILITY", "setting": "CEM-SS cells; 32 uG/mL, CEM-SS", "value": 100, "unit": "%"}, {"measurement": "CYTOTOXICITY TEST VALUES MEAN O.D.", "setting": "CEM-SS cells; 32 uG/mL, CEM-SS", "value": 2.390, "unit": "O.D."}, {"measurement": "% CELL VIABILITY", "setting": "CEM-SS cells; 100 uG/mL, CEM-SS", "value": 100, "unit": "%"}, {"measurement": "CYTOTOXICITY TEST VALUES MEAN O.D.", "setting": "CEM-SS cells; 100 uG/mL, CEM-SS", "value": 1.797, "unit": "O.D."}, {"measurement": "TC 25%", "setting": "CEM-SS cells; CEM-SS, XTT", "value": ">100.00", "unit": "UG/mL"}, {"measurement": "TC 50%", "setting": "CEM-SS cells; CEM-SS, XTT", "value": ">100.00", "unit": "UG/mL"}, {"measurement": "TC 95%", "setting": "CEM-SS cells; CEM-SS, XTT", "value": ">100.00", "unit": "UG/mL"}, {"measurement": "toxicity in CEM-SS cells", "setting": "CEM-SS cells; at concentrations up to 100 μg/mL", "value": "nontoxic; also recorded: No toxicity"}]}
